Ratio and Activity data for 19 compounds are collected here from ChEMBL document CHEMBL4351033, “Heterocyclic β-keto sulfide derivatives of carvacrol: Synthesis and copper (II) ion reducing capacity” (Bioorg Med Chem Lett, 2019).

The source made the active and inactive calls. The calls are words filed in the database; no cut-off is given here.

Experiment [1] can be described thus: Antioxidant activity assessed as reduction of Cu2+ in bis-neocuproine-Cu2+ complex to bis-neocuproine-Cu+ complex measured as trolox equivalent antioxidant capacity incubated for 30 mins by CUPRAC assay. The format is functional.
The nature of experiment [2]: Metal coordinating activity assessed as compound-copper coordination at 12.5 to 37.5 uM incubated for 0.5 to 1 hr in presence of 2.5 mM CuCl2 by UV-Visible spectrophotometric analysis. It counts as functional.

Consider `COc1cc(C(C)C)c(C(=O)CSc2nc3ccccc3s2)cc1C`, for which the Ratio in experiment [1] was 1.26.

For `COc1cc(C(C)C)c(C(=O)CSc2nnc(-c3ccccc3)[nH]2)cc1C`, the Ratio in experiment [1] was 1.02.

With `COc1cc(C(C)C)c(C(=O)CSc2nnc(N)[nH]2)cc1C`, the Ratio in experiment [1] worked out at 1.62.

`COc1cc(C(C)C)c(C(=O)CSc2ncnc3[nH]cnc23)cc1C`: in experiment [1], the Ratio amounted to 1.32.

Consider `COc1cc(C(C)C)c(C(=O)CSc2nnc(-c3ccncc3)o2)cc1C`, for which the Ratio in experiment [1] stood at 0.95.

For `COc1cc(C(C)C)c(C(=O)CSc2nc3ccccc3o2)cc1C`, the Ratio in experiment [1] worked out at 1.47.

As for `COc1cc(C(C)C)c(C(=O)CS(=O)(=O)c2ccccc2)cc1C`, the outcome in experiment [1] was inactive.

As for `COc1cc(C(C)C)c(C(=O)CSc2nnc(-c3ccccc3)o2)cc1C`, in experiment [1], the Ratio was 1.34.

Take `COc1cc(C(C)C)c(C(=O)CSc2nc3ccccc3[nH]2)cc1C`: in experiment [1], the Ratio was 1.21.

As to `Cc1ccc(C(C)C)cc1O`, the Ratio in experiment [1] was 0.87.

Turning to `COc1cc(C(C)C)c(C(=O)CSc2ccncc2)cc1C`, in experiment [1], the Ratio worked out at 0.47.

As for `COc1cc(C(C)C)c(C(=O)CSc2ccccc2)cc1C`, the Ratio in experiment [1] is 0.8.

As to `COc1cc(C(C)C)c(C(=O)CSc2ncccn2)cc1C`, the Ratio in experiment [1] worked out at 0.39.

Take `COc1cc(C(C)C)c(C(=O)CSc2nnc(N)s2)cc1C`: the Ratio in experiment [1] was 1.4.

With `COc1cc(C(C)C)c(C(=O)CSc2nnc(C)s2)cc1C`, the Ratio in experiment [1] worked out at 1.73.

On to `COc1cc(C(C)C)c(C(=O)CSc2nnc(-c3cccnc3)o2)cc1C`, for which, in experiment [1], the Ratio is 0.68.

With `O=C1O[C@H]([C@@H](O)CO)C(O)=C1O`, the Ratio in experiment [1] was found to be 0.85.

Take `COc1cc(C(C)C)c(C(=O)CSc2ccccn2)cc1C`: the Ratio in experiment [1] turned out to be 0.59.

On to `COc1cc(C(C)C)c(C(=O)CSc2nnc(-c3ccccn3)o2)cc1C`, for which the result in experiment [2] was inactive. Moreover, in experiment [1], the Ratio was found to be 1.59.
